# Source: patent publication US20180193490A1, “Beta Amyloid Staging” (GE HEALTHCARE LIMITED, priority 2015, published 2018)
# Biological target: T1, beta amyloid (Aβ) plaques in the brain (Homo sapiens, UniProt P05067)
# T1 construct: from tissue; host or cells: brain of living subjects (cortex and striatum), in vivo PET
# Assay: GE067-026 blinded image evaluation (BIE) of amyloid PET images, separate cortical and striatal assessment
# Type: in vivo
# Conditions: for Subjects classified C+S+ by BIE assessment / Subjects classified C+S− by BIE assessment / Subjects classified C−S+ by BIE assessment / Subjects classified C−S− by BIE assessment: GE067-026 data set, N = 106; for BIE assessments C+S+ against striatal plaque count by histopathology / BIE assessments C+S− against striatal plaque count by histopathology / BIE assessments C−S− against striatal plaque count by histopathology: N = 108 subjects and 5 readers
# Description: The data presented explore the use of separate cortical and striatal assessments to aid the Thal (amyloid) phase assignation to in life subjects. The data sets used are from a Flutemetamol (18F) Injection Phase III clinical trial. In this trial PET image assessment was compared to histopathological assessment of amyloid pathology from autopsy. The available data for a preliminary analysis of amyloidosis staging using separate cortical and striatal assessments comes from two sources: • (1) The blinded image evaluations (BIEs) from the GE067-026 clinical trial (NCT02090855) • (2) Provisional SUVR determinations in post-hoc analyses of the GE067-026 data During the BIEs for the above trial, 5 independent readers assessed each of 106 amyloid PET images as abnormal or normal. These dichotomous assessments formed the primary analysis for the trial. However, the individual cortical and striatal assessments were recorded and were re-analysed to estimate the cortical and striatal status separately. For each subject, each of the five readers rated 4 cortical regions and 1 striatal region as Aβ positive or Aβ negative.^1 ^1 All regions assessed are bilateral. Readers assessed images bilaterally—left and right hemispheres—but recoded only one result for each of the 5 bilateral regions. Applying the same general principle that if any of the 4 cortical regions are positive this confers cortical positivity, separate cortical and striatal assessments were determined for each case.
# T1 sequence (P05067 672-713 limits assumed): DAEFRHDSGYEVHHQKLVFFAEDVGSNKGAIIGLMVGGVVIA
compound,measurement,setting,value
CNc1ccc(-c2nc3ccc(O)cc3s2)cc1F [Flutemetamol],Share of C+S− cases that were phase 3,BIE majority assessment,75%
same,Cases identified as C+S− by Majority assessment,"BIE majority, all Thal phases",6
same,Subjects classified C+S+ by BIE assessment,Reader A,73
same,Subjects classified C+S− by BIE assessment,Reader A,5
same,Subjects classified C−S+ by BIE assessment,Reader A,1
same,Subjects classified C−S− by BIE assessment,Reader A,28
same,Subjects classified C+S+ by BIE assessment,Reader B,68
same,Subjects classified C+S− by BIE assessment,Reader B,4
same,Subjects classified C−S+ by BIE assessment,Reader B,0
same,Subjects classified C−S− by BIE assessment,Reader B,35
same,Subjects classified C+S+ by BIE assessment,Reader C,64
same,Subjects classified C+S− by BIE assessment,Reader C,6
same,Subjects classified C−S+ by BIE assessment,Reader C,0
same,Subjects classified C−S− by BIE assessment,Reader C,37
same,Subjects classified C+S+ by BIE assessment,Reader D,35
same,Subjects classified C+S− by BIE assessment,Reader D,38
same,Subjects classified C−S+ by BIE assessment,Reader D,0
same,Subjects classified C−S− by BIE assessment,Reader D,34
same,Subjects classified C+S+ by BIE assessment,Reader E,70
same,Subjects classified C+S− by BIE assessment,Reader E,5
same,Subjects classified C−S+ by BIE assessment,Reader E,2
same,Subjects classified C−S− by BIE assessment,Reader E,30
same,BIE assessments C+S+ against striatal plaque count by histopathology,STR Plaques Frequent,289
same,BIE assessments C+S− against striatal plaque count by histopathology,STR Plaques Frequent,37
same,BIE assessments C−S− against striatal plaque count by histopathology,STR Plaques Frequent,23
same,BIE assessments C+S+ against striatal plaque count by histopathology,STR Plaques Moderate,18
same,BIE assessments C+S− against striatal plaque count by histopathology,STR Plaques Moderate,17
same,BIE assessments C−S− against striatal plaque count by histopathology,STR Plaques Moderate,24
same,BIE assessments C+S+ against striatal plaque count by histopathology,STR Plaques None,0
same,BIE assessments C+S− against striatal plaque count by histopathology,STR Plaques None,1
same,BIE assessments C−S− against striatal plaque count by histopathology,STR Plaques None,98
same,BIE assessments C+S+ against striatal plaque count by histopathology,STR Plaques Sparse,0
same,BIE assessments C+S− against striatal plaque count by histopathology,STR Plaques Sparse,1
same,BIE assessments C−S− against striatal plaque count by histopathology,STR Plaques Sparse,19
same,Cases categorised C+S+ by BIE majority,Thal (amyloid) Phase 0,0
same,Cases categorised C+S− by BIE majority,Thal (amyloid) Phase 0,0
same,Cases categorised C−S+ by BIE majority,Thal (amyloid) Phase 0,0
same,Cases categorised C−S− by BIE majority,Thal (amyloid) Phase 0,7
same,Cases categorised C+S+ by BIE majority,Thal (amyloid) Phase 1,0
same,Cases categorised C+S− by BIE majority,Thal (amyloid) Phase 1,0
same,Cases categorised C−S+ by BIE majority,Thal (amyloid) Phase 1,0
same,Cases categorised C−S− by BIE majority,Thal (amyloid) Phase 1,10
same,Cases categorised C+S+ by BIE majority,Thal (amyloid) Phase 2,0
same,Cases categorised C+S− by BIE majority,Thal (amyloid) Phase 2,0
same,Cases categorised C−S+ by BIE majority,Thal (amyloid) Phase 2,0
same,Cases categorised C−S− by BIE majority,Thal (amyloid) Phase 2,5
same,Cases categorised C+S+ by BIE majority,Thal (amyloid) Phase 3,3
same,Cases categorised C+S− by BIE majority,Thal (amyloid) Phase 3,4
same,Cases categorised C−S+ by BIE majority,Thal (amyloid) Phase 3,0
same,Cases categorised C−S− by BIE majority,Thal (amyloid) Phase 3,7
same,Cases categorised C+S+ by BIE majority,Thal (amyloid) Phase 4,17
same,Cases categorised C+S− by BIE majority,Thal (amyloid) Phase 4,2
same,Cases categorised C−S+ by BIE majority,Thal (amyloid) Phase 4,0
same,Cases categorised C−S− by BIE majority,Thal (amyloid) Phase 4,5
same,Cases categorised C+S+ by BIE majority,Thal (amyloid) Phase 5,46
same,Cases categorised C+S− by BIE majority,Thal (amyloid) Phase 5,0
same,Cases categorised C−S+ by BIE majority,Thal (amyloid) Phase 5,0
same,Cases categorised C−S− by BIE majority,Thal (amyloid) Phase 5,0
